Assay results taken from ChEMBL document CHEMBL4020759, “Sulfoximines as ATR inhibitors: Analogs of VE-821” (2017).
Activity calls are given as the source filed them. The calls are words filed in the database; no cut-off is given here.

Experiments:
[1] = target: Serine-protein kinase ATM (Homo sapiens) (UniProt Q13315); experiment: Inhibition of ATM in human U2OS cells assessed as reduction in etoposide-induced Chk-2 phosphorylation at Thr68 residue at 10 uM preincubated for 1 hr followed by etoposide challenge measured after 20 mins by Western blot analysis; type: cell-based
[2] = target: Serine/threonine-protein kinase ATR (Homo sapiens) (UniProt Q13535); experiment: Inhibition of ATR in human U2OS cells assessed as reduction in etoposide-induced Chk-1 phosphorylation at Ser345 residue at 10 uM preincubated for 1 hr followed by etoposide challenge measured after 20 mins by Western blot analysis; type: cell-based
[3] = target: Serine/threonine-protein kinase ATR (Homo sapiens) (UniProt Q13535); experiment: Inhibition of ATR in human U2OS cells assessed as reduction in hydroxyurea-induced Chk-1 phosphorylation at Ser345 residue at 10 uM preincubated for 1 hr followed by hydroxyurea challenge measured after 1 hr by Western blot analysis; type: cell-based
[4] = target: Serine-protein kinase ATM (Homo sapiens) (UniProt Q13315); experiment: Inhibition of ATM in human U2OS cells assessed as reduction in hydroxyurea-induced Chk-2 phosphorylation at Thr68 residue at 10 uM preincubated for 1 hr followed by hydroxyurea challenge measured after 1 hr by Western blot analysis; type: cell-based
[5] = target: Serine/threonine-protein kinase ATR (Homo sapiens) (UniProt Q13535); experiment: Inhibition of ATR in human Ramos cells assessed as reduction in […] at 10 uM after 48 hrs by Western blot analysis; type: cell-based
Ramos = experiment: Induction of apoptosis in human Ramos cells assessed as increase PARP-1 cleavage at 10 uM after 48 hrs by Western blot analysis; type: functional, cell-based
CCRF-CEM = experiment: Growth inhibition of human CCRF-CEM cells assessed as cell growth at 10 uM incubated for 48 hrs by sulforhodamine B assay; type: functional; conditions: read-out: Activity
MOLT-4 = experiment: Growth inhibition of human MOLT4 cells assessed as cell growth at 10 uM incubated for 48 hrs by sulforhodamine B assay; type: functional; conditions: MOLT-4, 48 h, read-out: Activity
SR = experiment: Growth inhibition of human SR cells assessed as cell growth at 10 uM incubated for 48 hrs by sulforhodamine B assay; type: functional; conditions: read-out: Activity
NCI-H226 = experiment: Growth inhibition of human NCI-H226 cells assessed as cell growth at 10 uM incubated for 48 hrs by sulforhodamine B assay; type: functional; conditions: NCI-H226, 48 h, read-out: Activity
NCI-H23 = experiment: Growth inhibition of human NCI-H23 cells assessed as cell growth at 10 uM incubated for 48 hrs by sulforhodamine B assay; type: functional; conditions: NCI-H23, 48 h, read-out: Activity
NCI-H460 = experiment: Growth inhibition of human NCI-H460 cells assessed as cell growth at 10 uM incubated for 48 hrs by sulforhodamine B assay; type: functional; conditions: NCI-H460, 48 h, read-out: Activity
COLO 205 = experiment: Growth inhibition of human COLO205 cells assessed as cell growth at 10 uM incubated for 48 hrs by sulforhodamine B assay; type: functional; conditions: COLO 205, 48 h, read-out: Activity
KM12 = experiment: Growth inhibition of human KM12 cells assessed as cell growth at 10 uM incubated for 48 hrs by sulforhodamine B assay; type: functional; conditions: KM12, 48 h, read-out: Activity
SF-539 = experiment: Growth inhibition of human SF539 cells assessed as cell growth at 10 uM incubated for 48 hrs by sulforhodamine B assay; type: functional; conditions: SF-539, 48 h, read-out: Activity
SNB-19 = experiment: Growth inhibition of human SNB19 cells assessed as cell growth at 10 uM incubated for 48 hrs by sulforhodamine B assay; type: functional; conditions: SNB-19, 48 h, read-out: Activity
Malme-3M = experiment: Growth inhibition of human MALME-3M cells assessed as cell growth at 10 uM incubated for 48 hrs by sulforhodamine B assay; type: functional; conditions: read-out: Activity
M14 = experiment: Growth inhibition of human M14 cells assessed as cell growth at 10 uM incubated for 48 hrs by sulforhodamine B assay; type: functional; conditions: M14, 48 h, read-out: Activity
SK-MEL-2 = experiment: Growth inhibition of human SK-MEL-2 cells assessed as cell growth at 10 uM incubated for 48 hrs by sulforhodamine B assay; type: functional; conditions: SK-MEL-2, 48 h, read-out: Activity
SK-MEL-28 = experiment: Growth inhibition of human SK-MEL-28 cells assessed as cell growth at 10 uM incubated for 48 hrs by sulforhodamine B assay; type: functional; conditions: SK-MEL-28, 48 h, read-out: Activity
786-0 = experiment: Growth inhibition of human 786-0 cells assessed as cell growth at 10 uM incubated for 48 hrs by sulforhodamine B assay; type: functional; conditions: 786-0, 48 h, read-out: Activity
A498 = experiment: Growth inhibition of human A498 cells assessed as cell growth at 10 uM incubated for 48 hrs by sulforhodamine B assay; type: functional; conditions: A498, 48 h, read-out: Activity
ACHN = experiment: Growth inhibition of human ACHN cells assessed as cell growth at 10 uM incubated for 48 hrs by sulforhodamine B assay; type: functional; conditions: read-out: Activity
CAKI-1 = experiment: Growth inhibition of human Caki1 cells assessed as cell growth at 10 uM incubated for 48 hrs by sulforhodamine B assay; type: functional; conditions: CAKI-1, 48 h, read-out: Activity
RXF 393 = experiment: Growth inhibition of human RXF393 cells assessed as cell growth at 10 uM incubated for 48 hrs by sulforhodamine B assay; type: functional; conditions: RXF 393, 48 h, read-out: Activity
SN12C = experiment: Growth inhibition of human SN12C cells assessed as cell growth at 10 uM incubated for 48 hrs by sulforhodamine B assay; type: functional; conditions: read-out: Activity
UO-31 = experiment: Growth inhibition of human UO31 cells assessed as cell growth at 10 uM incubated for 48 hrs by sulforhodamine B assay; type: functional; conditions: UO-31, 48 h, read-out: Activity
DU-145 = experiment: Growth inhibition of human DU145 cells assessed as cell growth at 10 uM incubated for 48 hrs by sulforhodamine B assay; type: functional; conditions: DU-145, 48 h, read-out: Activity
MDA-MB-231 = experiment: Growth inhibition of human MDA-MB-231 cells assessed as cell growth at 10 uM incubated for 48 hrs by sulforhodamine B assay; type: functional; conditions: MDA-MB-231, 48 h, read-out: Activity
Hs-578T = experiment: Growth inhibition of human Hs578T cells assessed as cell growth at 10 uM incubated for 48 hrs by sulforhodamine B assay; type: functional; conditions: read-out: Activity
T47D = experiment: Growth inhibition of human T47D cells assessed as cell growth at 10 uM incubated for 48 hrs by sulforhodamine B assay; type: functional; conditions: read-out: Activity
[6] = target: Serine/threonine-protein kinase ATR (Homo sapiens) (UniProt Q13535); experiment: Inhibition of ATR in human U2OS cells assessed as reduction in hydroxyurea-induced Chk-1 phosphorylation at Ser345 residue by measuring ratio of GAPDH level to phosphorylated Chk-1 level at 10 uM preincubated for 1 hr followed by hydroxyurea challenge measured after 2 hrs by Western blot analysis; type: cell-based
[7] = target: Serine/threonine-protein kinase ATR (Homo sapiens) (UniProt Q13535); experiment: Inhibition of ATR in human U2OS cells assessed as reduction in hydroxyurea-induced Chk-1 phosphorylation at Ser345 residue preincubated for 1 hr followed by hydroxyurea challenge measured after 2 hrs by Western blot analysis; type: cell-based
[8] = target: Serine/threonine-protein kinase ATR (Homo sapiens) (UniProt Q13535); experiment: Inhibition of ATR in human U2OS cells assessed as reduction in hydroxyurea-induced H2AX phosphorylation at Ser139 residue at 3 to 10 uM preincubated for 1 hr followed by hydroxyurea challenge measured after 2 hrs by Western blot analysis; type: cell-based

Chain of Serine-protein kinase ATM (Homo sapiens) (Q13315 whole entry): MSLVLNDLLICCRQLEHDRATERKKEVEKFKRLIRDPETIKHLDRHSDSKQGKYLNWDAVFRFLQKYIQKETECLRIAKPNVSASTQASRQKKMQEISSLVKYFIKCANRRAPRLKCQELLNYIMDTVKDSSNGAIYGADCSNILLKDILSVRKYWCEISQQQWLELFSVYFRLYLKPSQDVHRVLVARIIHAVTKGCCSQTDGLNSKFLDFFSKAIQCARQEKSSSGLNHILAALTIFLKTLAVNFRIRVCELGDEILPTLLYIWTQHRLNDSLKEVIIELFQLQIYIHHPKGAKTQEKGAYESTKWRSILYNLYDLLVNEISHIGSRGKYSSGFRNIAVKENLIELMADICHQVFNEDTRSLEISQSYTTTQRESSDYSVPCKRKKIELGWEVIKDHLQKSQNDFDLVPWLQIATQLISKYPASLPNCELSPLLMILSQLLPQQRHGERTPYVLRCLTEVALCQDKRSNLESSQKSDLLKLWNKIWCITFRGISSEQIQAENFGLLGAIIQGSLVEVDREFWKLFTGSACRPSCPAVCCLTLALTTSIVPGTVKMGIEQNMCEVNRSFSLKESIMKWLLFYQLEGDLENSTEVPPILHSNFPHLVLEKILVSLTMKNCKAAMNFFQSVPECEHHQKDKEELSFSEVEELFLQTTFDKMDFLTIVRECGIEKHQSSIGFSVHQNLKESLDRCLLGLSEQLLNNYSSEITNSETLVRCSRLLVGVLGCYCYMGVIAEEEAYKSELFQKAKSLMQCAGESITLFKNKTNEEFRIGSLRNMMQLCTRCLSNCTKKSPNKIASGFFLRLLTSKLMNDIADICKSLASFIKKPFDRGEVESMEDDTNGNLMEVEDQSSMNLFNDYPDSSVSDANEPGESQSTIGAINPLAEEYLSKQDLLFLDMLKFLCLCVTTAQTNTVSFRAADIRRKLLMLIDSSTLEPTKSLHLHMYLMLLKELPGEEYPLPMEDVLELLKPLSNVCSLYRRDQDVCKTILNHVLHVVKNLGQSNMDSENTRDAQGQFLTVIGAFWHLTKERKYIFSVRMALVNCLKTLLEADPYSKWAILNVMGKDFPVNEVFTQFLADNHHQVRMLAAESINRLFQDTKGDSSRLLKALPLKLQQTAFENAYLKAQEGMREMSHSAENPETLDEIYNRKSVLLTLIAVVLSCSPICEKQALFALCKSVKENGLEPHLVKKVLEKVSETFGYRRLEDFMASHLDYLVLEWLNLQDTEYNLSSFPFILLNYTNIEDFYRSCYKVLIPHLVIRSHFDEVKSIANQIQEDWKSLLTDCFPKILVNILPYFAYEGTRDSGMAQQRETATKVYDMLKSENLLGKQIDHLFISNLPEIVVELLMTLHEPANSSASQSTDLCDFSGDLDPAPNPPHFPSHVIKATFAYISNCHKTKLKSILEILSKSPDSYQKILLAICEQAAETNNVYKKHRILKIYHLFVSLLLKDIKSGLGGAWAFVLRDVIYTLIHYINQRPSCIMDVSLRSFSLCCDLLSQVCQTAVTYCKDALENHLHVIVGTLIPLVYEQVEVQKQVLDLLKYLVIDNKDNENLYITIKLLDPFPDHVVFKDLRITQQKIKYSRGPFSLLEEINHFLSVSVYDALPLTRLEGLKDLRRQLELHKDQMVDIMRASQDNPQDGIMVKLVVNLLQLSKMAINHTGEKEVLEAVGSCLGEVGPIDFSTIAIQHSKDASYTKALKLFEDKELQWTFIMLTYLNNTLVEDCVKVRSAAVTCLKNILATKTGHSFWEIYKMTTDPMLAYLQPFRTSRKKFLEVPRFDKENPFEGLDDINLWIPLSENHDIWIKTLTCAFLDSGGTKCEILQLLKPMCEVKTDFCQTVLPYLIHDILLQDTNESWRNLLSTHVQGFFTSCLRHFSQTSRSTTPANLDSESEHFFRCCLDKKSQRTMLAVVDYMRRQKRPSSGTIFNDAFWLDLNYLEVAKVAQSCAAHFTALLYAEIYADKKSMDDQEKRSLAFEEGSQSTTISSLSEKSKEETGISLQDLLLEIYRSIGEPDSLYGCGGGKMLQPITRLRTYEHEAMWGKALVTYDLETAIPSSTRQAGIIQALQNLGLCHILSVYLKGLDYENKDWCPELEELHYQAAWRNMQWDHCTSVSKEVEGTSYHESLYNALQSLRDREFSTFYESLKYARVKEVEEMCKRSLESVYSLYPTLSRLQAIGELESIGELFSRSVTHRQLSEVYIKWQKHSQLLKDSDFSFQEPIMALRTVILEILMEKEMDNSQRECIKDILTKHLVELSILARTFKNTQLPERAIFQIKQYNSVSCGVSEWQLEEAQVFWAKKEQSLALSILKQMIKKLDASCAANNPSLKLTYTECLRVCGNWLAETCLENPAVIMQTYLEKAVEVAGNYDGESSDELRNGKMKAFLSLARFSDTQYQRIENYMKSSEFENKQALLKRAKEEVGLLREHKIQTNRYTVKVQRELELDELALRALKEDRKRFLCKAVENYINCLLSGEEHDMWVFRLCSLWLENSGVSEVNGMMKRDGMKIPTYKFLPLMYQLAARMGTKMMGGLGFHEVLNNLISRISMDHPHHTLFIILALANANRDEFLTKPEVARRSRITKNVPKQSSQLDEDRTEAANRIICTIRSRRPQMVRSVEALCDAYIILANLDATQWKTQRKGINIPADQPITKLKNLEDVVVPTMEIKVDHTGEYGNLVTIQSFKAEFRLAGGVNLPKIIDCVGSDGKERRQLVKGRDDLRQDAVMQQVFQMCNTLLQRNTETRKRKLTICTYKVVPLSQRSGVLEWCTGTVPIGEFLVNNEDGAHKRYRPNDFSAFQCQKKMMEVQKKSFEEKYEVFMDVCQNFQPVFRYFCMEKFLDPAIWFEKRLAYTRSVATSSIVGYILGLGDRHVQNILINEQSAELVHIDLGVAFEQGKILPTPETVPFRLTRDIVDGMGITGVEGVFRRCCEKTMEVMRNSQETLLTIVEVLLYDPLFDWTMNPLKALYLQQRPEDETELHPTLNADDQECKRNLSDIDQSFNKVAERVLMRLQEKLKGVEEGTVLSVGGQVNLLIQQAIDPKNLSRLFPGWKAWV

Row | Structure (SMILES) | inhibition [1] | inhibition [2] | inhibition [3] | inhibition [4] | inhibition [5] | Activity (Ramos) | growth at 10 µM (CCRF-CEM) | growth at 10 µM (MOLT-4) | growth at 10 µM (SR) | growth at 10 µM (NCI-H226) | growth at 10 µM (NCI-H23) | growth at 10 µM (NCI-H460) | growth at 10 µM (COLO 205) | growth at 10 µM (KM12) | growth at 10 µM (SF-539) | growth at 10 µM (SNB-19) | growth at 10 µM (Malme-3M) | growth at 10 µM (M14) | growth at 10 µM (SK-MEL-2) | growth at 10 µM (SK-MEL-28) | other results
1 | CS(=O)(=NC#N)c1ccc(-c2cnc(N)c(C(=O)Nc3ccccc3)n2)cc1 (stereo not drawn) | inactive | Active | Active | inactive | Active | Active | 79.9% | 64.7% | 44% | 92% | 81.2% | 83.9% | 88.3% | 78.2% | 69% | 105% | 127% | 77.7% | 94% | 111% | growth at 10 µM (786-0): 45.5%; growth at 10 µM (A498): 76.1%; growth at 10 µM (ACHN): 51.4%; growth at 10 µM (CAKI-1): 47.2%; growth at 10 µM (RXF 393): 71%; growth at 10 µM (SN12C): 78.8%; growth at 10 µM (UO-31): 48.1%; growth at 10 µM (DU-145): 75.6%; growth at 10 µM (MDA-MB-231): 102%; growth at 10 µM (Hs-578T): 55%; growth at 10 µM (T47D): 99%; Ratio [6]: 43.1; inhibition [7]: Dose-dependent effect; inhibition [8]: Dose-dependent effect
2 | C/S(=N\C#N)c1ccc(-c2cnc(N)c(C(=O)Nc3ccccc3)n2)cc1 (stereo not drawn) | inactive | Active | Active | inactive | Active | Active | 83.5% | 74.5% | 57.1% | 88.5% | 98.2% | 87.4% | 76.9% | 86.5% | 85.7% | 104% | 80% | 69.5% | 92.2% | 97.4% | growth at 10 µM (786-0): 59.5%; growth at 10 µM (A498): 86.3%; growth at 10 µM (ACHN): 54%; growth at 10 µM (CAKI-1): 53.2%; growth at 10 µM (RXF 393): 62.9%; growth at 10 µM (SN12C): 82.4%; growth at 10 µM (UO-31): 49.1%; growth at 10 µM (DU-145): 80.3%; growth at 10 µM (MDA-MB-231): 101%; growth at 10 µM (Hs-578T): 74.6%; growth at 10 µM (T47D): 82.9%; Ratio [6]: 22.5; inhibition [7]: Dose-dependent effect; inhibition [8]: Dose-dependent effect
